Measured values published in patent publication US8147827B2, “Tumor treatment” (Genentech, Inc., priority 2004, dated 2012).
Where “and” joins values, the source holds several entries; their conditions need not be identical. Equal entries are not always repeated. Entries after “also recorded” stand apart in the source; their conditions may differ. Structures can show the parent of a compound that is named as a salt.

How the values were obtained:
mouse colon = assay: Oligonucleotide array analysis (Affymetrix Mu74Av2) of normal colon/intestine of tumor-bearing mice treated with CPT-11 or saline; type: in vivo
[1] = test system: Colo205 human colorectal cancer cells; assay: Growth, treatment and resection of Colo205 tumor xenografts in nude mice (mass, H&E); type: in vivo
Source text: (§1) Growth and treatment of human tumor xenografts—Female nude mice (Charles River Laboratories, Hollister Calif.) were maintained in accordance with the guide for the Care and Use of Laboratory Animals, Colo205 human colorectal cancer cells were harvested, resuspended in HBSS, and injected s.c. into flanks (5×10^6 cells/flank) of 6-8 week old mice. […] Twenty-four hours following the final dose of CPT-11 or saline, tumors were resected from the animals. […]. Half of each tumor was frozen immediately in liquid nitrogen for subsequent extraction of RNA and the other half was fixed in 10% neutral buffer formalin overnight and then transferred 24 hours later into 70% ethanol for sectioning, microscopic analysis and analysis by in situ hybridization. Tumor xenografts of the DLD-1 colorectal cell line were treated and prepared in essentially the same manner. The masses of the DLD-1 colorectal tumor xenografts at time of resection were 0.24, 0.10 and 0.21 for saline controls and 0.21, 0.1 and 0.12 for CPT-11-treated tumors.

[2] = test system: DLD-1 colorectal tumor xenografts; assay: Growth, treatment and resection of DLD-1 tumor xenografts in nude mice; type: in vivo, human; details: DLD-1 xenografts; CPT-11-treated; at time of resection; monohydrochloride, trihydrate
Source text: as §1

Colo205 tumors = assay: Real-time PCR (TaqMan) of RNA from Colo205 xenograft tumors; type: in vivo, human
Description: Real-Time PCR (TaqMan®)'The source of RNA used for RT-PCR analysis was the same as that used for the preparation of probes for oligonucleotide array analysis. Quantitative Reverse Transcriptase-PCR (RT-PCR) was performed using TaqMan® assay reagents from Perkin-Elmer, Applied Biosystems, 50 μl RT-PCR reactions consisted of 5 μl 10× TaqMan Buffer A, 300 μM of each dNTP, 5 mM MgCl2, 10 unites of RNase inhibitor, 12.5 units of MuLV Reverse Transcriptase, 1.25 units of AmpliTaq Gold DNA Polymerase, 200 nM probe, 500 nM primers and 100 ng RNA. Reaction conditions consisted of reverse transcription at 48° C. for 10 minutes, denaturation at 95° C. for 10 minutes, and 40 thermal cycles of 95° C. for 25 seconds, and 65° C. for 1 min. Reaction products were analyzed on 4-agarose gels (Invitrogen). Fold-induction for each gene of interest was determined using the ΔΔCt method and the result is presented relative to both GAPDH and actin in each figure. The following specific probes and primer sets were used for MFGE8 (Acc#U58516): forward primer: […] (SEQ ID NO: 1), reverse primer: […] (SEQ ID NO: 2), and probe: […] (SEQ ID NO: 3); GPC1 (Acc#X54232): forward primer: […] (SEQ ID NO: 4), reverse primer: […] (SEQ ID NO: 5), and probe: […] (SEQ ID NO:6); AQP3 (Acc# N74607): forward primer: […] (SEQ ID NO: 7), reverse primer: […] (SEQ ID NO: 8), and probe, […] […]

DLD-1 tumors = assay: Real-time PCR (TaqMan) of RNA from DLD-1 xenograft tumors, parallel to Colo205; type: in vivo, human
Description: (§2) Real-Time PCR (TaqMan®)'The source of RNA used for RT-PCR analysis was the same as that used for the preparation of probes for oligonucleotide array analysis. Quantitative Reverse Transcriptase-PCR (RT-PCR) was performed using TaqMan® assay reagents from Perkin-Elmer, Applied Biosystems, 50 μl RT-PCR reactions consisted of 5 μl 10× TaqMan Buffer A, 300 μM of each dNTP, 5 mM MgCl2, 10 unites of RNase inhibitor, 12.5 units of MuLV Reverse Transcriptase, 1.25 units of AmpliTaq Gold DNA Polymerase, 200 nM probe, 500 nM primers and 100 ng RNA. Reaction conditions consisted of reverse transcription at 48° C. for 10 minutes, denaturation at 95° C. for 10 minutes, and 40 thermal cycles of 95° C. for 25 seconds, and 65° C. for 1 min. Reaction products were analyzed on 4-agarose gels (Invitrogen). Fold-induction for each gene of interest was determined using the ΔΔCt method and the result is presented relative to both GAPDH and actin in each figure. The following specific probes and primer sets were used for MFGE8 (Acc#U58516): forward primer: […] (SEQ ID NO: 1), reverse primer: […] (SEQ ID NO: 2), and probe: […] (SEQ ID NO: 3); GPC1 (Acc#X54232): forward primer: […] (SEQ ID NO: 4), reverse primer: […] (SEQ ID NO: 5), and probe: […] (SEQ ID NO:6); AQP3 (Acc# N74607): forward primer: […] (SEQ ID NO: 7), reverse primer: […] (SEQ ID NO: 8), and probe, […] (SEQ ID NO: 9); CDH17 (Acc#83228): forward primer: […] (SEQ ID NO: 10), reverse primer: […] (SEQ ID NO: 11), and probe: […] (SEQ ID NO: 12); Ly6D/E48 (Acc#Y12642): forward primer: […] (SEQ ID NO: 13); reverse primer: […] (SEQ ID NO: 14); and probe: […] (SEQ ID NO: 15); and Ly6E/SCA-2 (Acc# U66711): forward primer: […] (SEQ ID NO: 16); reverse primer: […] (SEQ ID NO: 17); and probe: […] (SEQ ID NO: 18).

normal colon tissue = assay: Real-time PCR with mouse-specific primers on normal colon of CPT-11 treated mice; type: in vivo; details: normal colon of CPT-11 treated vs control mice; data not shown
Description: Real-Time PCR (TaqMan®)'The source of RNA used for RT-PCR analysis was the same as that used for the preparation of probes for oligonucleotide array analysis. Quantitative Reverse Transcriptase-PCR (RT-PCR) was performed using TaqMan® assay reagents from Perkin-Elmer, Applied Biosystems, 50 μl RT-PCR reactions consisted of 5 μl 10× TaqMan Buffer A, 300 μM of each dNTP, 5 mM MgCl2, 10 unites of RNase inhibitor, 12.5 units of MuLV Reverse Transcriptase, 1.25 units of AmpliTaq Gold DNA Polymerase, 200 nM probe, 500 nM primers and 100 ng RNA. Reaction conditions consisted of reverse transcription at 48° C. for 10 minutes, denaturation at 95° C. for 10 minutes, and 40 thermal cycles of 95° C. for 25 seconds, and 65° C. for 1 min. Reaction products were analyzed on 4-agarose gels (Invitrogen). Fold-induction for each gene of interest was determined using the ΔΔCt method and the result is presented relative to both GAPDH and actin in each figure. The following specific probes and primer sets were used for MFGE8 (Acc#U58516): forward primer: […] NO: 1), reverse primer: […] NO: 2), and probe: […] NO: 3); GPC1 (Acc#X54232): forward primer: […] NO: 4), reverse primer: […] NO: 5), and probe: […] […] Real-time PCR with primers specific for corresponding mouse transcripts was performed and with the exceptions of SPRR3 and Aquaporin-3, all of the mouse homologs were readily detected in RNA from mouse colon. […]

LY6D/E48 transcript = assay: LY6D/E48 mRNA induction in cultured cell lines by CPT-11 (real-time PCR); type: cell-based, human; details: for LY6D/E48 transcript: monohydrochloride, trihydrate
Source text: (§3) Cell lines-Colo205, HCT116, HT29 (ATCC Nos. CCL222, CCL221, CCL247, HTB38, respectively) are human colorectal adenocarcinoma cell lines. 293 is a human immortalized embryonic kidney cell line (ATCC CRL573). PC-3 is a human prostate adenocarcinoma cell line (ATCC CRL1435) and HT1080 is a human fibrosarcoma cell line (ATCC CCL-121). PC-3 stable cell lines were generated by transfection (Effectene, Qiagen) with a CMV-driven vector encoding either an NH2-terminal gD epitope-tagged form of LY6D/E48 or an empty vector and selected in 400 μg/ml G418 (Geneticin, Life Technologies, Inc.). Growth conditions were according to American Type Culture Collection (ATCC, Manassas, Va.) guidelines. For all cell lines, CPT11 treatments were done in 10 cm dishes for the indicated timepoints. Cells were harvested and RNA was prepared using RNeasy kit (Qiagen, Hilden, Germany). TaqMan® real-time quantitative PCR analysis was performed as described below.
as §2

E48/Ly-6D = E48/Ly-6D surface expression on Colo205 cells after CPT-11 (FACS, immunofluorescence); type: cell-based, human
Description: For flow cytometry, cells were grown to 90% confluence and removed from plates using 2 mM EDTA in PBS. Cells were washed and resuspended in FACS buffer (PBS with 1% BSA) and incubated for 60 min with anti-LY6D/[…] monoclonal antibody 15A5 or 17H7 or anti-gd antibody (Genentech, Inc.) followed by 60 min with anti-mouse secondary antibody conjugated to PE. Analysis was performed on FACS scan.

Colo205 and DLD-1 cells = Colo205 and DLD-1 cells treated in vitro with CPT-11, expression of genes of Table I; type: cell-based, human; details: data not shown
Source text: as §3, with “LY6D/[…]” for “LY6D/E48”

[3] = test system: Colo205 human tumor xenografts; assay: In vivo efficacy study, Colo205 xenografts in nude mice; details: CPT-11 alone, 80 mg/kg IP day 0, 4 & 8; regrowth at rapid rate after last administration

**Q.** `CCc1c2c(nc3ccc(OC(=O)N4CCC(N5CCCCC5)CC4)cc13)-c1cc3c(c(=O)n1C2)COC(=O)[C@]3(O)CC` [CPT-11, (S)-[1,4′-bipiperidine]-1′-carboxylic acid, 4,11-diethyl-3,4,12,14-tetrahydro-4-hydroxy-3,14-dioxo-1H-pyrano[3′,4′:6,7]indolizino(1,2-b)quinolin-9-yl ester, monohydrochloride, trihydrate] was tested. Which “tumor-induced transcripts in normal mouse intestine” value (mouse colon; apart from Metallothionein (MT1G)) did it give?
**A.** none of the transcripts that were induced in the tumors by CPT-11 were induced in the normal mouse intestine

**Q.** And the cryptidin genes (mouse colon; normal colon, three animals treated with CPT-11)?
**A.** activated in two of the three animals treated with CPT-11

**Q.** What about the “gene activation in colon, Mu74Av2 array” value (mouse colon; unrelated to most genes induced in the xenografts) of the same compound?
**A.** activation of a small number of genes in the colon

**Q.** And the “average tumor mass, drug treated vs control group” value ([1]; 24 hours after third injection)?
**A.** did not differ significantly

**Q.** And the “average mass of the tumors” value ([1]; 24 hours after third injection, control and drug treated groups)?
**A.** approximately 300 mg

**Q.** What about the “mass of resected tumor (individual tumors)” value ([1]; CPT-11 80 mg/kg IP three times at 4 day intervals, 24 hours after final dose, monohydrochloride, trihydrate, 80 mg/kg) of the same compound?
**A.** 0.23 grams and 0.18 grams and 0.50 grams

**Q.** And the “mass of resected tumor (individual tumors)” value [2]?
**A.** 0.21 and 0.1 and 0.12

**Q.** What about the “Galectin-7 mRNA” value (Colo205 tumors; Colo205 tumors) of the same compound?
**A.** present and induced

**Q.** What about the “transcripts MFGE8, GPC1, AQP3, CDH17, LY6D, LY6E, identified and confirmed by real-time PCR” value (Colo205 tumors; three CPT-11 treated Colo205 tumors vs saline controls) of the same compound?
**A.** significant upregulation in all three CPT-11 treated tumors relative to controls

**Q.** And the “Activation of Keratin23 and E48” value (DLD-1 tumors; Colo205 and DLD-1 tumors)?
**A.** occurred in both tumor types

**Q.** And the “Neuromedin U, Annexin VIII, Transglutaminase, Aquaporin-3 and Maspin” value (DLD-1 tumors; Colo205 and DLD-1 tumors)?
**A.** all induced by SPT-11 and expressed at comparable levels in the Colo205 and DLD-1 tumors

**Q.** And the “Galectin-7 mRNA” value (DLD-1 tumors; DLD-1 tumors)?
**A.** undetectable in both treated or control DLD-1 tumors

**Q.** What about the “Periplekin and Antileukoproteinase induction” value (DLD-1 tumors; DLD-1 tumors compared with Colo205 tumors) of the same compound?
**A.** induced by SPT-11 to a degree less than that observed for the Colo205 tumors

**Q.** What about the “genes induced by CPT-11, Colo205 and DLD-1 tumors in parallel” value (DLD-1 tumors; real-time PCR, FIG. 2) of the same compound?
**A.** most of the genes were induced by CPT-11 treatment of both tumor types

**Q.** What about the “expression of mouse homologs of tumor-induced genes” value (normal colon tissue) of the same compound?
**A.** no difference in expression of these genes was detected

**Q.** What about the “LY6D/E48 mRNA” value (LY6D/E48 transcript; colorectal cancer cell line DLD-1) of the same compound?
**A.** overexpressed LY6D/E48 MRNA in response to CPT-11

**Q.** What about the “LY6D/E48 mRNA” value (LY6D/E48 transcript; colorectal cancer cell line HCT116) of the same compound?
**A.** overexpressed LY6D/E48 MRNA in response to CPT-11

**Q.** And the “LY6D/E48 mRNA” value (LY6D/E48 transcript; colorectal cancer cell line HT29)?
**A.** overexpressed LY6D/E48 MRNA in response to CPT-11

**Q.** What about the LY6D/E48 transcript level (LY6D/E48 transcript; cultured Colo205 cells, 10 μM CPT-11, 24 and 48 hours) of the same compound?
**A.** elevated within 24 hours post-treatment with a further enhancement by 48 hours

**Q.** And the “LY6D/E48 mRNA” value (LY6D/E48 transcript; fibrosarcoma cell line HT1080)?
**A.** overexpressed LY6D/E48 MRNA in response to CPT-11

**Q.** What about the LY6D/E48 transcript (LY6D/E48 transcript; human embryonic kidney cell line 293, 10 μM CPT-11) of the same compound?
**A.** could not be detected in the absence or presence of CPT-11; also recorded: not detected

**Q.** What about the LY6D/E48 transcript (LY6D/E48 transcript; human prostate cancer PC3 cell line, 10 μM CPT-11) of the same compound?
**A.** could not be detected in the absence or presence of CPT-11; also recorded: not detected

**Q.** What about the “anti-LY6D/E48 signal intensity by fluorescence activated cell sorting” value (E48/Ly-6D; Colo205 cells, increasing concentrations of CPT-11 in vitro, 2 days) of the same compound?
**A.** increased in a dose dependent manner

**Q.** And the “signal intensity and percentage of reactive cells by immunofluorescent microscopy” value (E48/Ly-6D; intact Colo205 cells, increasing CPT-11)?
**A.** increased with drug dosage

**Q.** What about the “expression of genes listed in Table I” value (Colo205 and DLD-1 cells) of the same compound?
**A.** upregulation of some of the genes listed in Table I was observed

**Q.** What about the tumor growth [3] of the same compound?
**A.** transiently reduced the rate of tumor growth
